Data reported in ChEMBL document CHEMBL5291721, “A preclinical secondary pharmacology resource illuminates target-adverse drug reaction associations of marketed drugs” (Nat Commun, 2023).

Columns and labels:
Androgen receptor [1] = biological target: T1, Androgen receptor (Rattus norvegicus, UniProt P15207); type: functional
T1 sequence (P15207 whole entry): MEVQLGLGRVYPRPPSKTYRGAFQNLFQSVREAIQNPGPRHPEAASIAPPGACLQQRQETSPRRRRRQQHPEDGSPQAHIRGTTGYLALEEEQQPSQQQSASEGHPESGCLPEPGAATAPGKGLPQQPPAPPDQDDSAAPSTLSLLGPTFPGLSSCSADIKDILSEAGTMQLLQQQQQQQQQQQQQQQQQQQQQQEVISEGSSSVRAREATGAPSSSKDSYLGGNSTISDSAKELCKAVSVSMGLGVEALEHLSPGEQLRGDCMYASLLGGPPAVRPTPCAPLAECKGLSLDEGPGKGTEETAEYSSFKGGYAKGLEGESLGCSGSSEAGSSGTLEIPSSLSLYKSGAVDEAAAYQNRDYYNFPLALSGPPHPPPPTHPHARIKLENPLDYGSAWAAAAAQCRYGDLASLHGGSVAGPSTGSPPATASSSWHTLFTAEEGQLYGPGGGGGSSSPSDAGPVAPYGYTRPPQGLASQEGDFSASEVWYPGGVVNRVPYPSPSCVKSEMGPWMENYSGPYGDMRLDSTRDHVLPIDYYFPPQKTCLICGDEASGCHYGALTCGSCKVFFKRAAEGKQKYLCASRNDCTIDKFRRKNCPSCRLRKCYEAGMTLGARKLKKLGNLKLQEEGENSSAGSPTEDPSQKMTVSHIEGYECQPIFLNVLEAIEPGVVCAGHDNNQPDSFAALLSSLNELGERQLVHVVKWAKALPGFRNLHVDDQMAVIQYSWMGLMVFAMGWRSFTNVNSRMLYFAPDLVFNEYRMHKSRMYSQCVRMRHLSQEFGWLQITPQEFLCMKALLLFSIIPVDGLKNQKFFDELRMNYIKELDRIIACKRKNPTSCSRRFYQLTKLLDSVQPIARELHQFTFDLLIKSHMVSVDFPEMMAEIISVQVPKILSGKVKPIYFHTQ

[2] = biological target: T2, Gastric inhibitory polypeptide receptor (Homo sapiens, UniProt P48546)
T2 sequence (P48546 whole entry): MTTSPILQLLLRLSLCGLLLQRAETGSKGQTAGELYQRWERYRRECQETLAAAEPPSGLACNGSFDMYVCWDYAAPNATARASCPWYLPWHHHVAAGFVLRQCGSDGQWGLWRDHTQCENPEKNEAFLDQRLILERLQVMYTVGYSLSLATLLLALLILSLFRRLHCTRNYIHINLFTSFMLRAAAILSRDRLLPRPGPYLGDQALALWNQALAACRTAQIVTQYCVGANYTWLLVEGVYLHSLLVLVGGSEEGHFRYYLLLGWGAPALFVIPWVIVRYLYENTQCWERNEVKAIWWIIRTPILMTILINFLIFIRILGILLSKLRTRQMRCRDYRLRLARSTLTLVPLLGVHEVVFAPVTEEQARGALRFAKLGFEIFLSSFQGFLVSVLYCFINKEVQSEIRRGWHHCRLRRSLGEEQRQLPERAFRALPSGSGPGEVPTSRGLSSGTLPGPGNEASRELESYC

[3] = biological target: T3, Neuropeptide Y receptor type 2 (Homo sapiens, UniProt P49146)
T3 sequence (P49146 whole entry): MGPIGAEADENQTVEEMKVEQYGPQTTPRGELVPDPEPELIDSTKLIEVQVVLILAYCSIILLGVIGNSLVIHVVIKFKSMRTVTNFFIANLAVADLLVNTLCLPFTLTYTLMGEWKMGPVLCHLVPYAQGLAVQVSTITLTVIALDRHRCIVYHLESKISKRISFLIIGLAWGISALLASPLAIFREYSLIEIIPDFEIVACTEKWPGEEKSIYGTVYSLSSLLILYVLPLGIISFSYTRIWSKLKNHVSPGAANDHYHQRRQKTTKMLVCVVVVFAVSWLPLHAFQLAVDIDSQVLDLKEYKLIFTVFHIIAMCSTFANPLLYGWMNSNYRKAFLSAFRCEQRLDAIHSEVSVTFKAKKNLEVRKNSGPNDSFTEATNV

Androgen receptor [4] = biological target: T1, Androgen receptor
[5] = biological target: Neurotensin receptor type 1 (Homo sapiens, UniProt P30989)
Sequence of Neurotensin receptor type 1 (P30989 whole entry): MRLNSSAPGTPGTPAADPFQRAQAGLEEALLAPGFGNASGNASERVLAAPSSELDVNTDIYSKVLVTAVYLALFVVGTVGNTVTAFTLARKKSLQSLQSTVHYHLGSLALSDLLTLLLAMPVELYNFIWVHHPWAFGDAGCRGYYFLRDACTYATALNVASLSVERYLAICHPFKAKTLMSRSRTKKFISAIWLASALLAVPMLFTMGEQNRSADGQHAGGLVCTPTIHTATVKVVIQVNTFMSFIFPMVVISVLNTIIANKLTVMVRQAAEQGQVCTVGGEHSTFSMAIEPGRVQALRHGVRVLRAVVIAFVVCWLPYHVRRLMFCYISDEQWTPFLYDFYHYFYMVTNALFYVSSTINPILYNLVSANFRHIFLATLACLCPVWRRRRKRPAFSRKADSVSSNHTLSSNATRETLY

[6] = biological target: 5-hydroxytryptamine receptor 2B (Homo sapiens, UniProt P41595)
Sequence of 5-hydroxytryptamine receptor 2B (P41595 whole entry): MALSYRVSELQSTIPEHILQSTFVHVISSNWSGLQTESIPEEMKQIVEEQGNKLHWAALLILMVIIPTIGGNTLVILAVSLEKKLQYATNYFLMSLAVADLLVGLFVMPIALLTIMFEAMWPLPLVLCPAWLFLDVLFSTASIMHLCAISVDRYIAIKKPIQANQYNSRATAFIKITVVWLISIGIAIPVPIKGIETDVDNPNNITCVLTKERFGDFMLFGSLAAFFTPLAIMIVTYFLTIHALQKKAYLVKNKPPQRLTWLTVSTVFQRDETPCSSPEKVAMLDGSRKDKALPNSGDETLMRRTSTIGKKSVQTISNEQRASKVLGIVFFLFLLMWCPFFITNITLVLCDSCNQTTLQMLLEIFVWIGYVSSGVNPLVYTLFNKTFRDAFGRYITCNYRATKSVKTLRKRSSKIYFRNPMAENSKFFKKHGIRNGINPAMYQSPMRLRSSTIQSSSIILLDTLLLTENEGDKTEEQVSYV

Progesterone receptor = biological target: T4, Progesterone receptor (Homo sapiens, UniProt P06401)
T4 sequence (P06401 whole entry): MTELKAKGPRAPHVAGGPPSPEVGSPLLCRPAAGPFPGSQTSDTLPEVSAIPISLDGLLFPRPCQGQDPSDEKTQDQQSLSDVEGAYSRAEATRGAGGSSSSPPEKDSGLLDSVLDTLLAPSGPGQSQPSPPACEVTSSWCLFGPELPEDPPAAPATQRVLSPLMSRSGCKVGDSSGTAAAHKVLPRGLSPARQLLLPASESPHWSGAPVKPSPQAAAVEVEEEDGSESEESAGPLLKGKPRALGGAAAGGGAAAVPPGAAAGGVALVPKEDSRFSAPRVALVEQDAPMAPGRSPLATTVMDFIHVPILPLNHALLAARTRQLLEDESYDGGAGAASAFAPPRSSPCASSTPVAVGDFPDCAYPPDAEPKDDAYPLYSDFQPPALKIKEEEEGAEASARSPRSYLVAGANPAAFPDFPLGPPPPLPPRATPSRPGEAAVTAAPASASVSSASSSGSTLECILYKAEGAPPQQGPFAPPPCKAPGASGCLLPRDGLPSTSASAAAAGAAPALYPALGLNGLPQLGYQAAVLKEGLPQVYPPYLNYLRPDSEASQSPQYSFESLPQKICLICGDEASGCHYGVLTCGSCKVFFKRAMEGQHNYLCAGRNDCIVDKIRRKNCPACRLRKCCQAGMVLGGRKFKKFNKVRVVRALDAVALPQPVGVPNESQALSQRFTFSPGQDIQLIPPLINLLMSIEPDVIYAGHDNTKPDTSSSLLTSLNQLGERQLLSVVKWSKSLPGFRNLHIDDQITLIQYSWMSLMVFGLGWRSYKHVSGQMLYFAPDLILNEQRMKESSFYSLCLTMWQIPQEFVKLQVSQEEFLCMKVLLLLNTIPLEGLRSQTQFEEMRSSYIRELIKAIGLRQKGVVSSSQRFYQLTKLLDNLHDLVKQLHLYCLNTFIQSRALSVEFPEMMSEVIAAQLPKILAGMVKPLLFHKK
Note: assay procedure not described here.

SMILES	AC50 (Androgen receptor [1]) [µM]	AC50 [2] [µM]	AC50 [3] [µM]	AC50 (Androgen receptor [4]) [µM]	AC50 [5] [µM]	AC50 [6] [µM]	AC50 (Progesterone receptor) [µM]
OC1(c2ccc(Cl)cc2)c2ccccc2C2=NCCN21 (stereo unspecified) [MAZINDOL]	> 30	> 30	> 30	> 30	> 30	> 10	> 30
CCC1(c2ccccc2)CCC(=O)NC1=O (stereo unspecified) [GLUTETHIMIDE]				> 10			
CNCc1ccc(-c2[nH]c3cc(F)cc4c3c2CCNC4=O)cc1 [RUCAPARIB]				> 30			
CCC(=O)O[C@H]1CC[C@H]2[C@@H]3CCC4=CC(=O)CC[C@]4(C)[C@H]3CC[C@]12C [TESTOSTERONE PROPIONATE]				1.7			
CC(C)NCC(O)c1ccc(O)c(O)c1 (stereo unspecified) [ISOPROTERENOL]		> 30	> 30		> 30	> 10	> 30
CNC1=Nc2ccc(Cl)cc2C(c2ccccc2)=[N+]([O-])C1 [CHLORDIAZEPOXIDE]				> 30			> 30
CCC[C@H](NC(=O)[C@@H]1[C@H]2CCC[C@H]2CN1C(=O)[C@@H](NC(=O)[C@@H](NC(=O)c1cnccn1)C1CCCCC1)C(C)(C)C)C(=O)C(=O)NC1CC1				> 30		> 10	> 30
CC1OC2(CS1)CN1CCC2CC1 (stereo unspecified) [CEVIMELINE]				> 10			
CC(N)C(O)c1ccccc1 (stereo unspecified) [PHENYLPROPANOLAMINE]		> 30	> 30		> 30	> 10	> 30
